# Entries after “also recorded” stand apart in the source; their conditions may differ.
# Columns and labels:
# [1] = system: P-selectin; assay: Surface expression of P-selectin on platelets (platelet activation); type: cell-based, human; conditions: platelets activated with thrombin (positive control)
# Excerpt: Monoclonal antibodies for immunophenotyping included CD14 (LPS receptor; monocytes), CD11c (integrin subunit; monocytes and DC), HLA-DR (class II MHC molecule), CD83 (DC marker), CD62p (P-selectin; activated platelets), and CD61 (integrin subunit; platelets). Antibodies were obtained from Beckman Coulter (CD14, CD11c, HLADR, CD83) or Sigma (CD62p, CD61) and used at their pre-determined optimal dilutions. Background staining was established with appropriate isotype controls, and immunofluorescence was analyzed using a FC500 flow cytometer (Beckman Coulter). Two-color membrane staining was performed by adding the pre-determined optimal concentrations of both antibodies directly conjugated to FITC or PE and incubating for 20 min at 4° C., followed by washing to remove unbound antibodies. Combined membrane and cytoplasmic staining was performed following manufacturer's instructions for cell fixation and permeabilization (Intraprep kit, Beckman Coulter).
# Upon encountering stimuli such as damaged endothelium or thrombin, platelets become activated and almost instantaneously translocate these intracellular proteins to the plasma membrane (Kaplan et al., 1979, see references). […] To test this hypothesis, surface expression of P-selectin, a well-known marker of platelet activation, was assessed before and after adhesion. […]
# [2] = system: monocytes; assay: Static co-culture of monocytes with platelets; type: cell-based, human; conditions: platelets activated with thrombin; no flow; 18 hours
# Experimental: Experiments involving co-cultures of monocytes with additional platelets were performed as described in the Overnight Culture section, with a few necessary modifications. Following Ficoll-Hypaque separation, mononuclear cells were resuspended in 30% AB serum/RMPI to a final concentration of 10×10^6 cells/ml, of which 1 ml was allocated to each well of a 16-well plate. An additional 1 ml of platelets (suspended in RPMI, at 2× the desired final concentration) or RPMI without platelets was then added to each well. To activate platelets, 500 μl containing 2 units of thrombin was added to half the wells, and 500 μl of RPMI was added to the others to balance the volume. Cells were then incubated as described previously.
# [3] = system: CD11c+ cells; assay: Apoptosis / cell death of CD11c+ MoDC (Annexin-V/7-AAD); type: cell-based, human
# Experimental: Immunofluorescence was analyzed using a FACSCalibur L (BD Biosciences) within 2 hr of fixation with 2% paraformaldehyde.
# [4] = system: GILZ; assay: GILZ mRNA expression in CD11c+ MoDC (quantitative real-time PCR); type: cell-based, human
# [5] = system: MoDC; assay: IL-10 and IL-12p70 ELISA in siRNA experiments; type: cell-based, human; conditions: siRNA experiment, not transfected
# Experimental: Silencer select pre-designed and validated GILZ siRNA (Invitrogen), with off-target prediction algorithms, was used to knockdown GILZ expression. Mo-DC were transfected using Lipofectamine RNAiMAX Reagent (Invitrogen). RNAi duplex and lipofectamine reagent were incubated together for 20 min, then added to MoDC cultures and incubated for 2 hr at 37° C. and 5% CO2. Transfected MoDC were treated in an identical fashion as described for the MoDC/lymphocyte co-cultures. MoDC were also transfected with scramble siRNA.
# (§1) Culture supernatants were analyzed in a multiplex format utilizing magnetic beads to IL-6, IL-8, IL-10, IL-12p70, IFN-γ, TNF-α, RANTES, MCP-1, and MIP-1β (BioRad Laboratories). For siRNA experiments, supernatants were analyzed with enzyme-linked immunosorbent assay (ELISA) kits for IL-10 (R&D Systems) and IL-12p70 (Enzo Life Science). All samples and standards were run in duplicate and analyzed using the LUMINEX 200 (LUMINEX), or the BioTek EL800 (BioTek).
# [6] = system: GILZ; assay: GILZ mRNA expression in CD11c+ MoDC (quantitative real-time PCR); type: cell-based, human; conditions: relative to untreated MoDC cultured alone; 24 hr (FIG. 13B); dex 100 nM; PUVA 100 ng/mL, 1 J/cm^2
# Experimental: Monocytes were cultured at a density of 5×10^6 cells/mL in 6- and 12-well polystyrene tissue culture plates at 37° C. and 5% CO2 in RPMI-1640 (Gibco) supplemented with heat-inactivated 15% AB serum (Gemini) and 1% penicillin/streptomycin (now referred to as complete media). 800 IU/mL recombinant human GM-CSF (R&D Systems) and 1000 IU/mL recombinant human IL-4 (R&D Systems) were added to cultures for 36 hr to induce monocyte to DC differentiation as described.
# Non-adherent cells (purity: 66.0±4.5% CD3^+) removed during plastic adherence will now be generally referred to as lymphocytes. Lymphocytes were treated with 8-MOP (100 ng/mL) and UVA (1 J/cm^2), washed with PBS, and co-cultured in complete media at 37° C. and 5% CO2 with either PUVA-treated or untreated-MoDC in a ratio of 5 or 10 lymphocytes to 1 MoDC. […] 24 hr after LPS stimulation, cells were harvested for RNA isolation and immunophenotyping, and supernatants were collected for cytokine quantification.
# RNA was isolated from CD11c^+ MoDC using QIAShredder columns (QIAGEN) and the RNeasy Mini Kit (QIAGEN) with on-column Dnase I treatment (QIAGEN). RNA yield and purity were assessed using a NanoDrop ND-1000 spectrophotometer. cDNA was obtained using the High Capacity cDNA Reverse Transcription Kit (Applied Biosystems) in a 96-well thermocycler (MJ Research PTC-200). […]
# [7] = system: lymphocytes; assay: Apoptosis of ECP-processed lymphocytes after overnight incubation; type: cell-based, human; conditions: UVA-activated 8-MOP; APO2-PE, Trypan blue and/or annexin/propidium iodide
# [8] = system: MoDC; assay: Cytokine quantification in MoDC supernatants after LPS stimulation (magnetic bead multiplex); type: cell-based, human
# Experimental: Lymphocytes were treated with 8-MOP (100 ng/mL) and UVA (1 J/cm^2), washed with PBS, and co-cultured in complete media at 37° C. and 5% CO2 with either PUVA-treated or untreated-MoDC in a ratio of 5 or 10 lymphocytes to 1 MoDC. MoDC treated for 24 hr with 100 nM dexamethasone (Sigma) served as the positive control group. After 24 hr, cells were harvested and MoDC were re-purified. […] CD11c^+ MoDC were re-plated at 0.5-1.0×10^6 cells/mL in complete media and stimulated with 100 ng/mL LPS (Sigma). 24 hr after LPS stimulation, cells were harvested for RNA isolation and immunophenotyping, and supernatants were collected for cytokine quantification.
# as §1
# [9] = system: immature MoDC; conditions: 24 hr
# [10] = system: lymphocytes; assay: Apoptosis of lymphocytes (Annexin-V/7-AAD); type: cell-based, human
# [11] = 24 hr after LPS stimulation, vs untreated MoDC
# [12] = 8-MOP 0 to 200 ng/mL, UVA 1 or 2 J/cm2
# [13] = product of 8-MOP and UVA exceeded 100
# [14] = 100 ng/mL and 1 J/cm^2, 24 hr after treatment
molecule,measurement,setting,value
thrombin,P-selectin mean fluorescence intensity (MFI),[1],108.3±23
same,Platelets P-selectin positive,[1],71±18%
same,DC differentiation of monocytes under static conditions,[2],neither activated nor non-activated platelets were capable of inducting DC differentiation; also recorded: did not cause a discernible difference
"COc1c2occc2cc2ccc(=O)oc12 [8-MOP, 8-methoxypsoralen]",Late apoptotic CD11c+ cells,"[3]; 1 J/cm^2, all doses of 8-MOP tested, 24 hr",less than 13%
same,Late apoptotic CD11c+ cells,"[3]; 2 J/cm^2, all doses of 8-MOP tested, 24 hr",less than 16%
same,Early apoptotic CD11c+ cells compared to untreated MoDC,"[3]; 2 J/cm^2 and 200 ng/mL, 24 hr",increase
same,Cell death,[3]; 4 J/cm^2 UVA (data not shown),high levels of non-specific cell death
same,GILZ expression,[4]; 0.5 J/cm^2 UVA,no effect on GILZ expression until the 8-MOP concentration reached 200 ng/mL
same,GILZ up-regulation,"[4]; 1 J/cm^2 UVA, 100 ng/mL 8-MOP, 24 hr",2.9 fold
same,GILZ up-regulation,"[4]; 1 J/cm^2 UVA, 200 ng/mL 8-MOP, 24 hr",4.4 fold
same,8-MOP concentration at which dose-dependent GILZ up-regulation starts,[4]; 2 J/cm^2 UVA,50 ng/mL
same,GILZ expression,"[4]; 8-MOP alone, without UVA, 24 hr",did not effect GILZ expression
same,Time GILZ remains significantly elevated,[4]; 8-MOP and UVA light,72 h
same,Time of peak GILZ induction after treatment,[4]; 8-MOP and UVA light,24 h
same,GILZ expression in immature MoDC after 8-MOP plus UVA light (qualitative),[4]; 24 hr after PUVA,up-regulates GILZ
same,GILZ expression increase,"[4]; combination of 8-MOP and UVA light, relative to untreated MoDC (FIG. 10E)",5.5 fold
same,GILZ up-regulation,[4]; product of 8-MOP and UVA = 100,3 fold
same,GILZ up-regulation,[4]; product of 8-MOP and UVA = 200,4.8 fold
same,GILZ up-regulation,[4]; product of 8-MOP and UVA = 400,8.6 fold
same,"IL-10 to IL-12p70 ratio, non-transfected MoDC cultured alone",[5],8.4
same,"IL-10 to IL-12p70 ratio, non-transfected PUVA-DC exposed to ApoL",[5],28.4
same,"GILZ up-regulation, MoDC cultured alone",[6],2.78 fold
same,ECP-processed lymphocytes apoptotic after overnight incubation,[7],99%
same,IL-10 production,[8]; [11],increased production of IL-10
same,Production of pro-inflammatory cytokines and chemokines,[8]; [11],"decreased production of all pro-inflammatory cytokines and chemokines tested, except TNF-α and IFN-γ"
same,"Ratio of IL-10 to IL-12p70, MoDC cultured alone","[8]; after LPS, untreated MoDC 6.7",38.7
same,"Ratio of IL-10 to IL-12p70, PUVA-DC exposed to ApoL","[8]; after LPS, untreated MoDC 6.7",114.9
same,"Membrane CD83, CD80 and CD86 expression (qualitative)",[9]; [12],down-regulates
same,Membrane HLA-DR expression (qualitative),[9]; [12],up-regulates
same,Increase of HLA-DR expression,[9]; [13],38%
same,Reduction of CD80 expression,[9]; [13],30%
same,Reduction of CD83 expression,[9]; [13],31%
same,Reduction of CD86 expression,[9]; [13],54%
same,Early apoptotic lymphocytes,[10]; [14],44.3%
same,Late apoptotic lymphocytes,[10]; [14],33.7%
same,Time at which lymphocytes display Annexin-V after treatment,[10]; 1 J/cm^2 and 100 ng/mL (data not shown),≤ 2 h
same,Lymphocytes Annexin-V+,[10]; 24 hr after treatment,64.3±3.2%

# — patent publication US20160298082A1, “METHOD FOR OBTAINING IMMUNO-STIMULATORY DENDRITIC CELLS” (TRANSIMMUNE AG, priority 2013, published 2016)
